Measured values taken from patent publication US20240410907A1, “FLUORESCENT ION INDICATORS AND THEIR APPLICATIONS” (AAT Bioquest, Inc., priority 2023, published 2024).

Assays:
[1] = Absorption spectra in TRIS buffer (pH 7.0) in the presence of 100 mM NaCl; type: physicochemical; conditions: 10 μM, TRIS buffer pH 7.0, 100 mM NaCl, FIG. 1
Method: (§1) FIG. 1. The absorption spectral comparison of SBFI and Compound 8. SBFI (10 μM) and Compound 8 (10 μM) are dissolved in TRIS buffer (pH 7.0). The absorption spectra are recorded in the presence of 100 mM NaCl. […] A longer absorption wavelength minimizes the background caused by naturally occurring biological substances.

[2] = Excitation and fluorescence spectra in TRIS buffer (pH 7.0) in the presence of 100 mM NaCl; type: physicochemical; conditions: 2.5 μM, TRIS buffer pH 7.0, 100 mM NaCl, FIG. 3
Method: (§2) FIG. 3. The spectral comparison of SBFI and Compound 8. SBFI (2.5 μM) and Compound 8 (2.5 μM) are dissolved in TRIS buffer (pH 7.0). The excitation and fluorescence spectra are recorded in the presence of 100 mM NaCl. […] The strong and sharp fluorescence emission peak is a critical characteristic required for multicolor analysis.

[3] = Sodium ion response, fluorescence intensity with 60 mM NaCl (Fmax) or without NaCl (F0); conditions: 2.5 μM, Tris-HCl buffer pH 7, 60 mM NaCl (Fmax) vs no NaCl (F0), FIG. 5
Method: FIG. 5. Comparisons of Compound 8 and SBFI to sodium ion responses. SBFI (2.5 μM) and Compound 8 (2.5 μM) are added in Tris-HCl buffer (pH-7) with 60 mM NaCl (Fmax) or without NaCl (F0) and their fluorescence intensities are recorded. […] SBFI=Black column; Compound 8=Grey column.

[4] = Absorption spectra in TRIS buffer (pH 7.0) in the presence of 100 mM KCl; type: physicochemical; conditions: 10 μM, TRIS buffer pH 7.0, 100 mM KCl, FIG. 2
Method: as §1, with “2.” for “1.”, “PBFI” for “SBFI”, “12. PBFI” for “8. SBFI”, “12” for “8”, “KCl.” for “NaCl.”

[5] = Excitation and fluorescence spectra in TRIS buffer (pH 7.0) in the presence of 100 mM KCl; type: physicochemical; conditions: 2.5 μM, TRIS buffer pH 7.0, 100 mM KCl, FIG. 4
Method: as §2, with “4.” for “3.”, “PBFI” for “SBFI”, “12. PBFI” for “8. SBFI”, “12” for “8”, “KCl.” for “NaCl.”, “[…]” for “sharp fluorescence emission peak”

[6] = Potassium ion response, fluorescence intensity with 60 mM KCl (Fmax) or without KCl (F0); conditions: 2.5 μM, Tris-HCl buffer pH 7.0, 60 mM KCl (Fmax) vs no KCl (F0), FIG. 6
Method: FIG. 6. Comparisons of Compound 12 and PBFI to potassium ion responses. PBFI (2.5 μM) and Compound 12 (2.5 μM) are added in Tris-HCl buffer (pH 7.0) with 60 mM KCl (Fmax) or without KCl (F0) and their fluorescence intensities are recorded. […] PBFI=Black column; Compound 12=Grey column.

SMILES | absorption wavelength compared with SBFI [1] | fluorescence emission peak compared with SBFI [2] | sodium ion response compared with SBFI [3] | absorption wavelength compared with PBFI [4] | fluorescence emission compared with PBFI [5] | potassium ion response compared with PBFI [6]
COc1ccccc1N1CCOCCOCCN(c2cc(C(=O)O)c(-c3c4cc(F)c(=O)cc-4oc4cc(O)c(F)cc34)cc2OC)CCOCC1 [Compound 8] | much longer absorption wavelength than SBFI | much stronger and sharper fluorescence emission peak | much stronger sodium ion response than SBFI |  |  | 
COc1ccccc1N1CCOCCOCCN(c2cc(C(=O)O)c(-c3c4cc(F)c(=O)cc-4oc4cc(O)c(F)cc34)cc2OC)CCOCCOCC1 [Compound 12] |  |  |  | much longer absorption wavelength than PBFI | much stronger and sharper | much stronger potassium ion response than PBFI
